Structures are written as SMILES.

The molecule `CC(NC(=O)c1cncc(OC(F)F)c1)c1ncnn1-c1ccccn1` (stereo not shown) [P23, 5-(difluoromethoxy)-N-[1-[2-(2-pyridyl)-1,2,4-triazol-3-yl]ethyl]pyridine-3-carboxamide] yielded a melting point of 105 to 110 °C.

What is called melting point is the temperature of the solid-liquid transition.

Values taken from patent publication US20210298306A1, “PESTICIDALLY ACTIVE AZOLE-AMIDE COMPOUNDS” (SYNGENTA PARTICIPATIONS AG, priority 2018, published 2021).
